Key:
BCL-2 = target: T1, BCL-2 (Homo sapiens, UniProt P10415); assay: BCL-2 TR-FRET Assay (primary PPI inhibition); assay type: binding; settings: 60 min incubation; read-out: BCL2 (IC50 code, BCL-2 TR-FRET)
T1 construct: purchased BPS Bioscience #50222

BCL-XL = target: T2, BCL-XL (Homo sapiens, UniProt Q07817); assay: BCL-XL TR-FRET Assay (primary PPI inhibition); assay type: binding; settings: 60 min incubation; read-out: BCLxL (IC50 code, BCL-XL TR-FRET)
T2 construct: purchased BPS Bioscience #50223
How it was run: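 TR-FRET readout (ex 340 nm; em 620/665 nm; 60 μs delay, 500 μs integration) after a 60 min incubation. Mix: compound, 10.5 ng BCL-XL, BCL-XL peptide ligand at 1:80, plus anti-His Tb donor and dye acceptor each at 1:100.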

RS4-11 cells = assay: Cell viability assay RS4-11 (CellTiter-Glo); assay type: cell-based; settings: Homo sapiens, 72 h; RS4-11 cells, 3 days, CellTiter-Glo; read-out: RS4-11 (CC50 code)
How it was run: (§1)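 Cells were seeded at 2000/well (HEK293, in DMEM, pre-incubated a day) or 4000/well (other lines, in RPMI-1640). Serially diluted compound was added and plates incubated 3 days at 37 °C, with viability read by CellTiter-Glo luminescence.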

MOLT-4 cells = assay: Cell viability assay MOLT-4 (CellTiter-Glo); assay type: cell-based; settings: Homo sapiens, 72 h; MOLT-4 cells, 3 days, CellTiter-Glo; read-out: MOLT-4 (CC50 code)
How it was run: as §1

[1] = Cell viability assay HEK293 (CellTiter-Glo); assay type: cell-based; settings: human, HEK293 cells, read-out: HEK293 (CC50 code)
How it was run: as §1

[2] = tested on: caspase-3 and -7 activities in RS4-11 cells; assay: Cas-3/7 activation (Caspase-Glo 3/7) in RS4-11 cells; assay type: cell-based; settings: Homo sapiens, 3.5 h at 37° C. and 30 min at r.t., read-out: Cas-3/7 (EC50 code)
Procedure: Assay Principle: The Caspase-Glo 3/7 Assay is homogeneous, luminescent assay that measures caspase-3 and -7 activities. The assay provides a luminogenic caspase-3/7 substrate, which contains the tetrapeptide sequence DEVD, in a reagent optimized for caspase activity.
Assay Procedure: Incubate RS4-11 cells with varying concentrations of test compounds for 3.5 h in a humidified incubator at 37° C. and 5% CO2 and 30 min at r.t. Add 15 μl Caspase-Glo reagent to each well and incubate the plate for 30 min at r.t. Read on ClarioStar Plus instrument.
Materials: Promega Caspase-Glo (Promega, #8212); Frozen RS4-11 cells; 384-well white plate (Corning, #3570).
Instrumentation: ClarioStar Plus; Biomek FX for liquid handling (Beckman Coulter).

T2 sequence (Q07817 whole entry): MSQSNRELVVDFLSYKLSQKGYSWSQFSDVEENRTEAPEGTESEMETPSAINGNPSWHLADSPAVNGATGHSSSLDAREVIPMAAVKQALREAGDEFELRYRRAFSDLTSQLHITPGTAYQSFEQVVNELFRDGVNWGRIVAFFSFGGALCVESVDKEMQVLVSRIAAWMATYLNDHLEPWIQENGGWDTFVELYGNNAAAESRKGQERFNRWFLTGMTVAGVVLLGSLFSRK
T1 sequence (P10415 whole entry): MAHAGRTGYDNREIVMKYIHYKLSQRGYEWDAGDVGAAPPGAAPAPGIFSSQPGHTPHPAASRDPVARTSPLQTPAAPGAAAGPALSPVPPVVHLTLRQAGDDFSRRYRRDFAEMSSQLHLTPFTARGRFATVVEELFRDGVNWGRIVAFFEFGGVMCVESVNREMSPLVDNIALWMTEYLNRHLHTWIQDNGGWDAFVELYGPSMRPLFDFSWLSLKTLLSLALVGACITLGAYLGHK

Row | IC50 (BCL-2) | IC50 (BCL-XL) | EC50 [2] | Compound | CC50 (RS4-11 cells) | CC50 (MOLT-4 cells) | CC50 at 3 days [1]
1 | > 0.05 µM | > 4 µM | > 0.25 µM | O=C(NS(=O)(=O)c1ccc(NC2CCS(=O)(=O)CC2)c([N+](=O)[O-])c1)c1ccc(N2CCC(CN3CCCCC3c3ccc(Cl)cc3)CC2)cc1Oc1cnc2[nH]ccc2c1 (stereo not drawn) [Compound 79, 4-[4-[[2-(4-chlorophenyl)-1-piperidyl]methyl]-1-piperidyl]-N-[4-[(1,1-dioxothian-4-yl)amino]-3-nitro-phenyl]sulfonyl-2-(1H-pyrrolo[2,3-b]pyridin-5-yloxy)benzamide] | > 0.2 µM | 2 to 10 µM | > 25 µM
2 | > 0.05 µM | > 4 µM | > 0.25 µM | O=C(NS(=O)(=O)c1ccc(NCC2CCOCC2)c([N+](=O)[O-])c1)c1ccc(N2CCC(CN3Cc4ccccc4C4(CCC4)C3)CC2)cc1Oc1cnc2[nH]ccc2c1 [Compound 46, N-[3-nitro-4-(tetrahydropyran-4-ylmethylamino)phenyl]sulfonyl-2-(1H-pyrrolo[2,3-b]pyridin-5-yloxy)-4-[4-(spiro[1,3-dihydroisoquinoline-4,1′-cyclobutane]-2-ylmethyl)-1-piperidyl]benzamide] | > 0.2 µM | 2 to 10 µM | > 25 µM
3 | > 0.05 µM | > 4 µM | > 0.25 µM | O=C(NS(=O)(=O)c1ccc(NCC2CCOCC2)c([N+](=O)[O-])c1)c1ccc(N2CCN(C[C@@H]3Cc4ccccc4CN3C(=O)c3ccsc3)CC2)cc1Oc1cnc2[nH]ccc2c1 [Compound 36, N-[3-nitro-4-(tetrahydropyran-4-ylmethylamino)phenyl]sulfonyl-2 (1H-pyrrolo[2,3-b]pyridin-5-yloxy)-4-[4-[[(3S)-2-(thiophene-3 carbonyl)-3,4-dihydro-1H-isoquinolin-3-yl]methyl]piperazin 1-yl]benzamide] | > 0.2 µM | 2 to 10 µM | 10 to 25 µM
4 | > 0.05 µM | > 4 µM | > 0.25 µM | O=C(NS(=O)(=O)c1ccc(NCC2CCOCC2)c([N+](=O)[O-])c1)c1ccc(N2CCN(C[C@@H]3Cc4ccc(F)cc4CN3C(=O)C3CC3)CC2)cc1Oc1cnc2[nH]ccc2c1 [Compound 50, 4-[4-[[(3S)-2-(cyclopropanecarbonyl)-7-fluoro-3,4-dihydro-1H-isoquinolin-3-yl]methyl]piperazin-1-yl]-N-[3-nitro-4-(tetrahydropyran-4-ylmethylamino)phenyl]sulfonyl-2-(1H-pyrrolo[2,3-b]pyridin-5-yloxy)benzamide] | > 0.2 µM | > 10 µM | > 25 µM
5 | 0.01 to 0.05 µM | > 4 µM | > 0.25 µM | O=C(NS(=O)(=O)c1ccc(NCC2CCOCC2)c([N+](=O)[O-])c1)c1ccc(N2CCN(CC(O)(c3ccccc3)c3ccccc3)CC2)cc1Oc1cnc2[nH]ccc2c1 [Compound 7, 4-[4-(2-hydroxy-2,2-diphenyl-ethyl)piperazin-1-yl]-N-[3-nitro-4-(tetrahydropyran-4-ylmethylamino)phenyl]sulfonyl-2-(1H-pyrrolo[2,3-b]pyridin-5-yloxy)benzamide] | > 0.2 µM | 2 to 10 µM | > 25 µM
6 | > 0.05 µM | > 4 µM | > 0.25 µM | O=C(NS(=O)(=O)c1ccc(NCC2CCOCC2)c([N+](=O)[O-])c1)c1ccc(N2CCN(CC3Cc4cc(Cl)ccc4CN3C(=O)C3CC3)CC2)cc1Oc1cnc2[nH]ccc2c1 (stereo not drawn) [Compound 22, 4-[4-[[6-chloro-2-(cyclopropanecarbonyl)-3,4-dihydro-1H-isoquinolin-3-yl]methyl]piperazin-1-yl]-N-[3-nitro-4-(tetrahydropyran-4-ylmethylamino)phenyl]sulfonyl-2-(1H-pyrrolo[2,3-b]pyridin-5-yloxy)benzamide] | > 0.2 µM | 2 to 10 µM | > 25 µM
7 | > 0.05 µM | ≤ 2 µM | > 0.25 µM | CC1=C(C)C[C@H](c2ccc(Cl)cc2)[C@@H](CN2CCN(c3ccc(C(=O)NS(=O)(=O)c4ccc(NCC5CCOCC5)c([N+](=O)[O-])c4)c(Oc4cnc5[nH]ccc5c4)c3)CC2)C1 [Compound 75, 4-[4-[[(1S,6S)-6-(4-chlorophenyl)-3,4-dimethyl-cyclohex-3-en-1-yl]methyl]piperazin-1-yl]-N-[3-nitro-4-(tetrahydropyran-4-ylmethylamino)phenyl]sulfonyl-2-(1H-pyrrolo[2,3-b]pyridin-5-yloxy)benzamide] | > 0.2 µM | 2 to 10 µM | > 25 µM
8 | > 0.05 µM | ≤ 2 µM | > 0.25 µM | O=C(NS(=O)(=O)c1ccc(NCC2CCOCC2)c([N+](=O)[O-])c1)c1ccc(N2CCN(CC34CC(O)CCC3(c3ccc(Cl)cc3)C4)CC2)cc1Oc1cnc2[nH]ccc2c1 (stereo not drawn) [Compound 80, 4-[4-[[6-(4-chlorophenyl)-3-hydroxy-norcaran-1-yl]methyl]piperazin-1-yl]-N-[3-nitro-4-(tetrahydropyran-4-ylmethylamino)phenyl]sulfonyl-2-(1H-pyrrolo[2,3-b]pyridin-5-yloxy)benzamide] | > 0.2 µM | > 10 µM | 10 to 25 µM
9 | > 0.05 µM | > 4 µM | > 0.25 µM | O=C(NS(=O)(=O)c1ccc(NCC2CCOCC2)c([N+](=O)[O-])c1)c1ccc(N2CCN(C[C@@H]3Cc4ccccc4CN3C(=O)c3ccc(Cl)s3)CC2)cc1Oc1cnc2[nH]ccc2c1 [Compound 35, 4-[4-[[(3S)-2-(5-chlorothiophene-2-carbonyl)-3,4-dihydro-1H-isoquinolin-3-yl]methyl]piperazin-1-yl]-N-[3-nitro-4-(tetrahydropyran-4-ylmethylamino)phenyl]sulfonyl-2-(1H-pyrrolo[2,3-b]pyridin-5-yloxy)benzamide] | > 0.2 µM | 2 to 10 µM | > 25 µM
10 | > 0.05 µM | > 4 µM | > 0.25 µM | CC(C)C(=O)N1Cc2ccc(Cl)cc2C[C@H]1CN1CCN(c2ccc(C(=O)NS(=O)(=O)c3ccc(NCC4CCOCC4)c([N+](=O)[O-])c3)c(Oc3cnc4[nH]ccc4c3)c2)CC1 [Compound 40, 4-[4-[[(3S)-6-chloro-2-(2-methylpropanoyl)-3,4-dihydro-1H-isoquinolin-3-yl]methyl]piperazin-1-yl]-N-[3-nitro-4-(tetrahydropyran-4-ylmethylamino)phenyl]sulfonyl-2-(1H-pyrrolo[2,3-b]pyridin-5-yloxy)benzamide] | > 0.2 µM | 2 to 10 µM | 10 to 25 µM
11 | > 0.05 µM | ≤ 2 µM | > 0.25 µM | O=C(NS(=O)(=O)c1ccc(NCC2CCOCC2)c([N+](=O)[O-])c1)c1ccc(N2CCN(CC3Cc4ccccc4CN3C(=O)c3cccs3)CC2)cc1Oc1cnc2[nH]ccc2c1 (stereo not drawn) [Compound 6, N-[3-nitro-4-(tetrahydropyran-4-ylmethylamino)phenyl]sulfonyl-2-(1H-pyrrolo[2,3-b]pyridin-5-yloxy)-4-[4-[[2-(thiophene-2-carbonyl)-3,4-dihydro-1H-isoquinolin-3-yl]methyl]piperazin-1-yl]benzamide] | > 0.2 µM | 2 to 10 µM | > 25 µM

Row | Compound | IC50 (BCL-2) | IC50 (BCL-XL) | EC50 [2] | CC50 (RS4-11 cells) | CC50 (MOLT-4 cells) | CC50 at 3 days [1]
12 | Cc1cc(Cl)ccc1C1N(CC2CCN(c3ccc(C(=O)NS(=O)(=O)c4ccc(NCC5CCOCC5)c([N+](=O)[O-])c4)c(Oc4cnc5[nH]ccc5c4)c3)CC2)C(=O)C12CCCC2 (stereo not drawn) [Compound 3, 4-[4-[[1-(4-chloro-2-methyl-phenyl)-3-oxo-2-azaspiro[3.4]octan-2-yl]methyl]-1-piperidyl]-N-[3-nitro-4-(tetrahydropyran-4-ylmethylamino)phenyl]sulfonyl-2-(1H-pyrrolo[2,3-b]pyridin-5-yloxy)benzamide] | 0.01 to 0.05 µM | 2 to 4 µM | > 0.25 µM | > 0.2 µM | 2 to 10 µM | > 25 µM
13 | O=C(NS(=O)(=O)c1ccc(NCC2CCOCC2)c([N+](=O)[O-])c1)c1ccc(N2CCC(CN3C(=O)C4(CCCC4)C3c3ccccc3)CC2)cc1Oc1cnc2[nH]ccc2c1 (stereo not drawn) [Compound 2, N-[3-nitro-4-(tetrahydropyran-4-ylmethylamino)phenyl]sulfonyl-4-[4-[(3-oxo-1-phenyl-2-azaspiro[3.4]octan-2-yl)methyl]-1-piperidyl]-2-(1H-pyrrolo[2,3-b]pyridin-5-yloxy)benzamide] | > 0.05 µM | > 4 µM | > 0.25 µM | > 0.2 µM | > 10 µM | > 25 µM
